Data as given in PMC5249144, “T Cell Subset and Stimulation Strength-Dependent Modulation of T Cell Activation by Kv1.3 Blockers” (PLoS ONE, 2017).
Read-outs that look alike come from different tables or passages of the source.

How the values were obtained:
human CD4 T cells [1] = experiment: Calcium flux in CD4 T cells, anti-CD3/CD28; format: cell-based; conditions: BTP2 1μM
Method: (§1) T cells were loaded with 3μM each of Fluo4 and Fura red (Molecular Probes, Invitrogen) for 45 minutes in the dark at 37°C in cell loading medium (DMEM medium with 10mM HEPES and 10% fetal calf serum) in the presence of 0.01% pluronic acid (Molecular Probes). Dye-loaded cells were rinsed twice with loading medium, incubated with 10μg/ml mouse anti-CD3 (BD Biosciences) and 2.5μg/ml mouse anti-CD28 (BD Biosciences) for 30 minutes at room temperature, and then rinsed again with loading medium to be ready for calcium flux studies. Cells were acquired with FACS LSRII and cell activation was initiated by addition of goat anti-mouse antibody (Jackson ImmunoResearch) to final 10μg/ml. CD4 T cells were also stimulated with 1μM thapsigargin. Kinetics of calcium flux in activated cells were monitored by reading the calcium dependent Fluo4 emission signals at 530nm compared to non-specific Fura red signals at 685nm. Calcium flux was calculated as ratio of Fluo4 to Fura red emission signals.

[2] = test system: thapsigargin stimulated human blood; experiment: Thapsigargin stimulated whole blood IL-2 production; format: cell-based; conditions: whole blood diluted with equal volume IMDM, 20 hours
Method: Heparinized human blood was diluted with an equal volume of IMDM medium (Life Technologies) supplemented with 2% normal human A/B serum and plated at 200μl/well in 96-well plates for thapsigargin (Alomone) stimulation. CD4 T cells were plated at 5 x 10^5 cells/well in 96-well plates with 200μl medium/well. Blood or T cell samples were pre-treated with blockers or inhibitors for 30 minutes prior to stimulation with thapsigargin at 10μM or other concentrations as indicated for 20 hours. Cytokines in culture supernatants were measured as described in cytokine detection section.
(§2) Cytokines in supernatants collected from blood or T cell cultures were measured with ELISA or electrochemiluminescent assays. IL-2 was measured by ELISA using the human IL-2 Quantikine Kit (R&D Systems). Other cytokines were detected using multiplex human cytokine electro-chemiluminescent kit (Meso Scale Discovery).

human CD4 T cell subsets = format: cell-based
Source text: (§3) Human PBMC were purified from donor blood by Ficoll-Paque (GE Healthcare) density centrifugation. CD4 or CD8 T cells were purified from human PBMC by negative selection using human CD4 or CD8 T cell isolation kit (Miltenyi Biotec) respectively. Naïve or memory CD4 T cells were isolated from CD4 T cells by negative selection using human naïve or memory CD4 T cell isolation kit (Miltenyi Biotec) respectively. Central and effector memory CD4 T cells were separated from memory CD4 T cells using biotinylated anti-CCR7 (BD Biosciences) and streptavidin coated magnetic beads (Miltenyie Biotec). Cells after treatment with antibodies and magnetic beads were purified with autoMACS (Miltenyi Biotec).
(§4) T cells were cultured in 96-well plates (Thermo Scientific) with 200μl medium/well. […]
(§5) Proliferation of T cells was measured by overnight pulsing with 1μCi/well of ^3H-thymidine (Perkin Elmer). […] Filter plates were soaked with scintillant (Perkin Elmer) and radioactivity was counted using a Topcount (Packard).
In order to further understand the activity profile of Kv1.3 blockers on T cells, we compared the effects of Kv1.3 blockers on primary naïve, central memory and effector memory CD4 T cells. […] Purified T cells were activated with anti-CD3 in the presence of mitomycin C treated PBMC and the effects of Kv1.3 blockers on T cell proliferation were monitored and compared to cyclosporine A and BTP2.

human CD4 T cells [3] = experiment: Calcium flux in CD4 T cells, thapsigargin; format: cell-based; conditions: BTP2 1μM, thapsigargin 1μM, monitored for 10 minutes
Method: as §1

Kv1.3 = conditions: ref [5], [20]–[23]; cited from earlier work
[4] = test system: PBMC from allergic rhinitis patients; format: cell-based, human
Method: T cells were cultured in 96-well plates (Thermo Scientific) with 200μl medium/well. Culture medium was RPMI-1640 medium supplemented with 2% human A/B serum (Valley Biomedical Prod & Srv Inc.), 2 mM glutamine, 1mM sodium pyruvate, 10mM HEPES, 1mM MEM nonessential amino acid solution, and 100 U/ml each of penicillin G and streptomycin (all culture reagents from Life Technologies except for human serum). T cells were pre-treated with Kv1.3 blockers and other inhibitors for 30 minutes before stimulation. All assays were conducted with samples in duplicates or triplicates.
For T cell pan-activation with beads coated with anti-CD3 and anti-CD28 (eBioscience), T cells at 2 x 10^5 cells/well in 96-well flat-bottom plates were stimulated overnight with anti-CD3 and anti-CD28 coated beads (Miltenyi Biotec) at 2:1 bead/cell ratio or as indicated. For T cell pan-activation with anti-CD3, T cells at 5 x 10^4 cells/well in 96-well U-bottom plates were stimulated for 2 days with 1ng/ml of anti-CD3 in the presence of mitomycin C treated autologous PBMC at 1:1 T cell/PBMC ratio. […]
as §5

[5] = test system: human CD4 and CD8 T cells; format: cell-based
Source text: as §3, §4, §5, §2

Row | Molecule | reduction of calcium flux, in words (human CD4 T cells [1]; anti-CD3/CD28, monitored for 10 minutes) | calcium flux by T cell population, in words (human CD4 T cells [1]; ShK 1nM, activated CD4 T cells, Fig 4C (anti-CD3/CD28 or thapsigargin)) | inhibition of IL-2 release from thapsigargin stimulated whole blood, in words [2] | inhibition of proliferation of T cell subsets, in words (human CD4 T cell subsets; maximal efficacious concentrations, naïve, Tcm, Tem CD4 T cells, anti-CD3/PBMC) | reduction of calcium flux, in words (human CD4 T cells [3]) | Kv1.3 block, in words (Kv1.3) | ragweed proliferative response, in words [4] | block of T cell activation [5] [%] | inhibition of T cell activation, in words [5] | inhibition of proliferation of T cell subsets, in words (human CD4 T cell subsets)
1 | Cc1nnsc1C(=O)Nc1ccc(-n2nc(C(F)(F)F)cc2C(F)(F)F)cc1 [BTP2] | significantly reduced the calcium flux levels | reduced calcium flux in all activated T cells | fully efficacious | complete inhibition | significantly reduced the calcium flux levels | – | – | – | – | –
2 | CC[C@H](C)[C@@H]1NC(=O)[C@@H]2CSSC[C@@H]3NC(=O)[C@H](CCCCN)NC(=O)CNC(=O)[C@H](CC(N)=O)NC(=O)[C@H](CCSC)NC(=O)[C@H](CSSC[C@H](NC(=O)[C@H](CCCCN)NC(=O)[C@@H](NC(=O)[C@H](CC(=O)O)NC(=O)[C@@H](NC(=O)[C@@H]4CCCN4C(=O)[C@@H](NC(=O)CN)C(C)C)[C@@H](C)O)C(C)C)C(=O)N[C@@H](CCCNC(=N)N)C(=O)NCC(=O)N[C@@H](CO)C(=O)N4CCC[C@H]4C(=O)N[C@@H](CCC(N)=O)C(=O)N2)NC(=O)[C@H](CCCCN)NC(=O)CNC(=O)[C@H](Cc2ccccc2)NC(=O)[C@H](CCCNC(=N)N)NC(=O)[C@H](CCSC)NC(=O)CNC(=O)[C@H](C)NC(=O)[C@H](CC(=O)O)NC(=O)[C@H](CCCCN)NC(=O)[C@H](CSSC[C@@H](C(=O)N[C@H](C(=O)N2CCC[C@H]2C(=O)N[C@@H](CCCCN)C(=O)O)[C@@H](C)O)NC(=O)[C@H](Cc2c[nH]cn2)NC3=O)NC(=O)[C@@H]2CCCN2C(=O)[C@H](CCC(N)=O)NC1=O [OdK2] | – | – | – | – | – | potent blockers of Kv1.3 | – | – | – | –
3 | cyclosporine A | – | – | fully efficacious | – | – | – | reduced the proliferative response to its basal level | ~100 | fully inhibits T cell activation in all stimulation conditions | complete inhibition
